Assay [1] concerns the target S1PR2 (Homo sapiens, UniProt O95136). The note with it: cited from earlier work.
Assay [2] deals with other S1P receptors. Particulars: cited from earlier work.
Assay [3] deals with GBM MVEC. In words: Mean traction forces of adhered cells on nanopillars coated with Nogo-A proteins. The class given is cell-based, human. Particulars: pre-incubation with blocker 10 μM, Nogo-A Delta 20-coated nanopillars. As for the experimental part: (§1) For time-lapse- and force generation experiments, Vybrant/Dil (Invitrogen, 1:200)-labeled GBM MVEC (10^4 cells ml^−1) were added onto the nanopillar structures. The imaging process was started 1 h after seeding GBM MVEC on nanopillars. To calculate the traction force exerted by GBM MVEC on the nanopillar surface, the deflection of the nanopillar tip was imaged with confocal microscopy using a Leica confocal microscope SP5 with a63x, oil immersion, NA1.43 objective.
(§2) During image acquisition, GBM MVEC were kept at 37° C. and 10% CO2. Following laser wavelengths were used to acquire images of nanopillar arrays and Di-labeled cells: 488 nm (nanopillar structures) and 546 nm (Dil).
To quantitatively address the effects of coated Nogo-A proteins on adhesion between endothelial cells (GBM MVEC) and nanopillars, nanopillars were coated with Nogo-A Delta 20, Nogo-A Delta 21, or Fibronectin (blank condition).
To calculate the total force applied by endothelial cells (GBM MVEC) on the substrates, the average displacement of 800-5000 nanopillars per single cell was used. Single GBM MVEC were imaged for a total time of 20 min, with a scanning ratio of 30 s per frame. For each condition, at least three individual GBM MVEC were analyzed.
To address the role of Nogo-A receptors, endothelial cells were pre-incubated for 30 min before seeding with the pharmacological blocker of S1PR2 (JTE-013, 10 μM) (Tocris Bioscience), with the pharmacological blocker of S1PR1 and S1PR3 (VPC 23019, 10 μM) (Tocris Bioscience), or with the pharmacological blocker of S1PR1, 3, 4, and 5 (FTY720, 10 μM) (Tocris Bioscience).
(§3) To quantitatively address the acute effects of soluble Nogo-A proteins on GBM MVEC retraction, Dil-labeled endothelial cells on nanopillars coated with 25 μg*ml^−1 human Fibronectin were treated 30 min after cell seeding with soluble Nogo-A Delta 20 and Nogo-A Delta 21 at 1 μM. Single GBM MVEC were then imaged for a total time of 1.5 h, with a scanning ratio of 30 s per frame. The nanopillar displacements were recorded as sequence images when the GBM MVEC applied forces on the nanopillar surface. For each condition, at least three individual GBM MVEC were analyzed. To address the role of Nogo-A receptors, endothelial cells were cultured for 30 min before incubating the cells for another 30 min with the pharmacological blocker of S1PR2 (JTE-013, 10 μM) (Tocris Bioscience), with the pharmacological blocker of S1PR1 and S1PR3 (VPC 23019, 10 μM) (Tocris Bioscience), or with the pharmacological blocker of S1PR1, 3, 4, and 5 (FTY720, 10 μM) (Tocris Bioscience). Then soluble Nogo-A Delta 20 (at 1 μM) or Nogo-A Delta 21 (at 1 μM) was added and lamellipodia and filopodia were imaged for 1h. The displacements (x) of the nanopillar tips induced by whole endothelial cells (for experiments with coated Nogo-A proteins) or by single endothelial filopodia (for experiments with soluble Nogo-A proteins) were measured using the program Diatrack (Powerful Particle Tracking, Semasopht). Finally, corresponding traction forces were calculated using the formula F=k*x, where k represents the spring constant of the nanopillars, 78.76 nN/μm.

In assay [4] the test system is GBM MVEC filopodia. Description: Peak traction forces of filopodia on nanopillars, soluble Nogo-A proteins. The assay is classed as cell-based, human. The note with it: pre-incubation with blocker 10 μM, Nogo-A Delta 20 1 μM. The method, then:
as §1, §2, §3

Assay [5] has as its system GBM MVEC. In words: Time-lapse imaging of lamellipodia and filopodia retraction on nanopillars, soluble Nogo-A proteins. Particulars: pre-incubation with blocker 10 μM, Nogo-A Delta 20 1 μM. The class given is cell-based, human. The method, then:
as §1, §2
To quantitatively address the acute effects of soluble Nogo-A proteins on GBM MVEC retraction, Dil-labeled endothelial cells on nanopillars coated with 25 μg*ml^−1 human Fibronectin were treated 30 min after cell seeding with soluble Nogo-A Delta 20 and Nogo-A Delta 21 at 1 μM. Single GBM MVEC were then imaged for a total time of 1.5 h, with a scanning ratio of 30 s per frame. The nanopillar displacements were recorded as sequence images when the GBM MVEC applied forces on the nanopillar surface. For each condition, at least three individual GBM MVEC were analyzed. […] Finally, corresponding traction forces were calculated using the formula F=k*x, where k represents the spring constant of the nanopillars, 78.76 nN/μm.

Assay [6] relates to GBM MVECs. Description: Transwell migration assay (VEGF-A + fibronectin induced). The class given is cell-based, human. The note with it: for migration potential despite Nogo-A Delta 20 exposure, blocker alone: pre-incubation with blocker 10 μM. As for the experimental part:
For the migration assays, the undersides of 24-well plate inserts (FluoroBlock, BD Falcon) were coated with 0.5 ml PBS containing 10 μg*ml^−1 fibronectin (recombinant human fibronectin, Biopur AG) and different concentrations of Nogo-A Delta 21, Nogo-A Delta 20 and Nogo-66 (R&D Systems) and incubated for 1 h at 37° C. Endothelial cells (GBM MVECs) were starved in migration medium (DMEM+0.25% BSA) 4 h before detachment with accutase (PAA Laboratories). Cells were resuspended in migration medium (1 Mio ml^−1) and labeled with calcein AM (Molecular Probes, 4 μg ml^−1), followed by washing with HBSS and resuspending in migration medium (125,000 cells ml^−1). The coated inserts were washed and the bottom chamber was prepared by adding migration medium with or without human VEGF-A (PeproTech Inc., 10 ng ml^−1). The inserts were then put in an empty 24-well plate (BD Falcon) and calcein AM-labeled endothelial cells (50,000 cells per insert) were added.
The loaded inserts were transferred to the prepared cluster plate and incubated at 37° C., 5% CO2 for 4 h. A cell titration plate was prepared by adding different cell numbers (50,000/25,000/12,500/6,250/3,125/1,563/782 cells per well) in triplicates in 1.2 ml migration medium and incubated in parallel. The fluorescence was measured after 4 h by a cytofluorometer (Tean Infinite Pro 200) and the number of migrated cells was calculated based on the titration curve.
To ask how co-signaling of Nogo-A Delta 20/Nogo-66 coated to the underside of transwell inserts and of its receptors affect cell migration, calcein-AM labeled GBM MVECs were incubated for 1 h with the pharmacological blockers of-the Nogo-A Delta 20 receptor S1PR2 (JTE-013, 1 μM, 10 μM), with the pharmacological blocker of S1PR1 and S1PR3 (VPC 23019, 10 μM) (Tocris Bioscience), and with the competitive inhibitor of the Nogo-66 receptor NgR1 (NEP1-40, 4.6 μg/ml) during calcein-AM labeling. After washing, the cell medium was again supplied with these pharmacological blockers, prior to cell addition in the upper chamber of the transwell insert.

Assay [7] concerns the target sphingosin-1 phosphate (S1P) receptor 2 (S1PR2) (human) (UniProt O95136). In words: cell-based or functional assay.

This is an account of results in patent publication US20180015144A1, “AGONISTS OF THE NOGO-A S1PR PATHWAY FOR THE TREATMENT OF GLIOBLASTOMA” (UNIVERSITAT ZURICH, priority 2015, published 2018).

sphingosin-1 phosphate (S1P) receptor 2 (S1PR2) (human), sequence (O95136 whole entry): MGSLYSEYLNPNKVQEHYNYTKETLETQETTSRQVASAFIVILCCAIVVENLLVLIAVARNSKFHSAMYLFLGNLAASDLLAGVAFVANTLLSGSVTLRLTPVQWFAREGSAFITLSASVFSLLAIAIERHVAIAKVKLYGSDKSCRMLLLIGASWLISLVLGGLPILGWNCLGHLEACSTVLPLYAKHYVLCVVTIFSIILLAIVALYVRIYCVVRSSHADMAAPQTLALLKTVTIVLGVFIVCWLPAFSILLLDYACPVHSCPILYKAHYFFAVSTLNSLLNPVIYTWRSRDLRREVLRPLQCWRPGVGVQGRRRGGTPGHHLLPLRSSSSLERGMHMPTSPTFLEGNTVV
S1PR2, sequence (O95136 whole entry): as above

Take `Cc1cc(C(=O)Cn2cc(C#N)ccc2=O)c(C)n1Cc1ccccc1` [CYM-5520]: the “selectivity for S1PR2” value in assay [1] is listed as “highly selective”. Besides, the “activation of other S1P receptors” value in assay [2] is listed as “do not activate”.
`CCCCCCCCc1ccc(CCC(N)(CO)CO)cc1` [FTY720]: the “effect of blocker on mean traction forces induced by Nogo-A Delta 20 coating” value in assay [3] was “did not decrease”. Also, in assay [4], the “effect of blocker on average peak traction forces of Nogo-A Delta 20 treated filopodia” value is “did also decrease”.
`Cc1nn(C)c2nc(NNC(=O)Nc3cc(Cl)nc(Cl)c3)cc(C(C)C)c12` [JTE-013]: the “effect of blocker on soluble Nogo-A Delta 20-induced retraction of lamellipodia and filopodia” value in assay [5] is reported as “counterbalanced”. In assay [3], the “mean traction forces induced by Nogo-A Delta 20 coating after blocker” value was about 4.1 nN. In addition, the “average peak traction forces of Nogo-A Delta 20 treated filopodia after blocker” value in assay [4] was about 4.5 nN. The “migration potential despite Nogo-A Delta 20 exposure, blocker alone” value in assay [6] is “significantly increases”.
Consider `CCCCCCCCc1cccc(NC(=O)[C@H](N)COP(=O)(O)O)c1` [VPC 23019], for which the “effect of blocker on mean traction forces induced by Nogo-A Delta 20 coating” value in assay [3] is on record as “did not decrease”. In assay [4], the “effect of blocker on average peak traction forces of Nogo-A Delta 20 treated filopodia” value is given as “did also decrease”. The “inhibitor effect of Nogo-A Delta 20 on migration, combined blockers” value in assay [6] (combined pre-incubation of VPC 23019 with JTE-013) is on record as “strong reduction of the inhibitor effect”. The “migration potential despite Nogo-A Delta 20 exposure, blocker alone” value in assay [6] is given as “no effect on its own”.
For the molecule `Cc1ccc(Sc2ccc(C3SCCS3)cc2[N+](=O)[O-])cc1` [XAX-162], in assay [1], the “selectivity for S1PR2” value is “highly selective”. For the same molecule, the “activation of other S1P receptors” value in assay [2] is on record as “do not activate”.
In the case of “NEP1-40: competitive antagonist of Nogo-66, inhibitor of the Nogo-66 receptor NgR1 (RIYKGVIQAIQKSDEGHPFRAYLESEVAISEELVQKYSNS; UniProt Q9NQC3 1055-1094, looked up, fragment)”, the “migration potential upon exposure to Nogo-66 coating” value in assay [6] (pre-incubation with NEP1-40) was “significantly increases”.
In assay [7], Nogo-A Delta 20 (ligand) displayed a mean traction forces of GBM MVECs on Nogo-A Delta 20-coated nanopillars of 12 nN and a peak traction forces of GBM MVEC filopodia on nanopillars, soluble Nogo-A Delta 20 at 1 µM of 10 nN.

B1: Nogo-66: inhibitory domain of Nogo, 66 aa; human aa 1055-1120 (SEQ ID NO 004), rat aa 1026-1091 (SEQ ID NO 003) (protein)
chain: RIYKGVIQAIQKSDEGHPFRAYLESEVAISEELVQKYSNSALGHVNCTIKELRRLFLVDDLVDSLK
As for B1, in assay [6] (protein coated on the underside of the insert, different concentrations), the “VEGF+FN-induced migration” value was “dose-dependently inhibited”.
